Literature values, collected in patent US5665721A, “Heterocyclic substituted cyclopentane compounds” (Abbott Laboratories, priority 1995, dated 1997).

System: adenosine kinase
Settings: literature; cited from earlier work

C[C@H]1O[C@@H](n2cc(I)c3c(N)ncnc32)[C@H](O)[C@@H]1O [5'-deoxy-5-iodotubercidin]
reported to inhibit adenosine kinase (in words): most potent

Nc1ncnc2c1c(I)cn2[C@@H]1O[C@H](CO)[C@@H](O)[C@H]1O [5-iodotubercidin]
reported to inhibit adenosine kinase (in words): most potent
